From ChEMBL document CHEMBL4507293 (2021)

Tests used:
[1] = molecular target: cGMP-dependent 3',5'-cyclic phosphodiesterase (Homo sapiens, UniProt O00408); test: Biochemical assay (PDE2A)
[2] = molecular target: cGMP-inhibited 3',5'-cyclic phosphodiesterase 3A (Homo sapiens, UniProt Q14432); test: Biochemical assay (PDE3A)
[3] = molecular target: cGMP-specific 3',5'-cyclic phosphodiesterase (Homo sapiens, UniProt O76074); test: Biochemical assay (PDE5A)
[4] = molecular target: Activin receptor type-1-like (Homo sapiens) (UniProt P37023); settings: Compound concentration 100.0 nM
Activin receptor type-1-like (Homo sapiens), sequence (P37023 whole entry): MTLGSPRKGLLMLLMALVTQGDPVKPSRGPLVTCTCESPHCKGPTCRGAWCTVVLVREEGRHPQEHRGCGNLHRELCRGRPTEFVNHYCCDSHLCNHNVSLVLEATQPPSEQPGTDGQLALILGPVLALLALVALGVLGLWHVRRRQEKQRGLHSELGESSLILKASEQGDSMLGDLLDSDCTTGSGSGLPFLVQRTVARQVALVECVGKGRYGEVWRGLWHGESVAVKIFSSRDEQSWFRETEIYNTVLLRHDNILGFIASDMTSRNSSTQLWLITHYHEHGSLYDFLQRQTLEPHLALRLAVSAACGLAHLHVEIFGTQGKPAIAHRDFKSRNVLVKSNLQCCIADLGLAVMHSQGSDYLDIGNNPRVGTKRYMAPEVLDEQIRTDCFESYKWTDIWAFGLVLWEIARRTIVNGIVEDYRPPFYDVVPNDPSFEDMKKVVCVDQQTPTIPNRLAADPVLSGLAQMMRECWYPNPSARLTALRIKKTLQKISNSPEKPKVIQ

[5] = molecular target: RAC-beta serine/threonine-protein kinase (Homo sapiens) (UniProt P31751); settings: Compound concentration 100.0 nM
[6] = molecular target: RAC-gamma serine/threonine-protein kinase (Homo sapiens) (UniProt Q9Y243); settings: Compound concentration 100.0 nM
[7] = molecular target: Mitogen-activated protein kinase kinase kinase 6 (Homo sapiens) (UniProt O95382); settings: Compound concentration 100.0 nM
[8] = molecular target: Bone morphogenetic protein receptor type-2 (Homo sapiens) (UniProt Q13873); settings: Compound concentration 100.0 nM
[9] = molecular target: Serine/threonine-protein kinase BRSK2 (Homo sapiens) (UniProt Q8IWQ3); settings: Compound concentration 100.0 nM
[10] = molecular target: Calcium/calmodulin-dependent protein kinase type 1B (Homo sapiens) (UniProt Q6P2M8); settings: Compound concentration 100.0 nM
[11] = molecular target: Calcium/calmodulin-dependent protein kinase type 1G (Homo sapiens) (UniProt Q96NX5); settings: Compound concentration 100.0 nM
Calcium/calmodulin-dependent protein kinase type 1G (Homo sapiens), sequence (Q96NX5 whole entry): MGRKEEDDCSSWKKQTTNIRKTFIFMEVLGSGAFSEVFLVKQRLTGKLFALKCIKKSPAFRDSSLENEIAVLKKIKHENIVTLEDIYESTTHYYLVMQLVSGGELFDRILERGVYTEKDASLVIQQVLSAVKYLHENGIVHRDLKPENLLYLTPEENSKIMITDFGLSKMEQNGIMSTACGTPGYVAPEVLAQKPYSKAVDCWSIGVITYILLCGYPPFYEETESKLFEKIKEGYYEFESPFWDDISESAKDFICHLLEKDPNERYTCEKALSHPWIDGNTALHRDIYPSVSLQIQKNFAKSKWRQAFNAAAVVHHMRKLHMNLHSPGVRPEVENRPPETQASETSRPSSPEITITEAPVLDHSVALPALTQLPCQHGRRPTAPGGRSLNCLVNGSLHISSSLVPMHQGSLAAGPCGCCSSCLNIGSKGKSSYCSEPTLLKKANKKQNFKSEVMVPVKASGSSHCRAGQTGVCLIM

[12] = molecular target: Cyclin-dependent kinase 4 (Homo sapiens) (UniProt P11802); settings: Compound concentration 100.0 nM
Cyclin-dependent kinase 4 (Homo sapiens), sequence (P11802 whole entry): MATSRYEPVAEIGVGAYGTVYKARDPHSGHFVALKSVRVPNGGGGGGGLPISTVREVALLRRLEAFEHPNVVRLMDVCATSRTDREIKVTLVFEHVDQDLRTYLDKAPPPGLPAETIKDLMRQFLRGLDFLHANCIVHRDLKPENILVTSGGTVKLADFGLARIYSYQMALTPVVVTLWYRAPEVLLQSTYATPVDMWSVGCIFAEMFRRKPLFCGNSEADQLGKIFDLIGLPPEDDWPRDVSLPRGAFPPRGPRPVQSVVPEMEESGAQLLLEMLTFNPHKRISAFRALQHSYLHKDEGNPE

[13] = molecular target: Dual specificity protein kinase CLK4 (Homo sapiens) (UniProt Q9HAZ1); settings: Compound concentration 100.0 nM
Dual specificity protein kinase CLK4 (Homo sapiens), sequence (Q9HAZ1 whole entry, looked up): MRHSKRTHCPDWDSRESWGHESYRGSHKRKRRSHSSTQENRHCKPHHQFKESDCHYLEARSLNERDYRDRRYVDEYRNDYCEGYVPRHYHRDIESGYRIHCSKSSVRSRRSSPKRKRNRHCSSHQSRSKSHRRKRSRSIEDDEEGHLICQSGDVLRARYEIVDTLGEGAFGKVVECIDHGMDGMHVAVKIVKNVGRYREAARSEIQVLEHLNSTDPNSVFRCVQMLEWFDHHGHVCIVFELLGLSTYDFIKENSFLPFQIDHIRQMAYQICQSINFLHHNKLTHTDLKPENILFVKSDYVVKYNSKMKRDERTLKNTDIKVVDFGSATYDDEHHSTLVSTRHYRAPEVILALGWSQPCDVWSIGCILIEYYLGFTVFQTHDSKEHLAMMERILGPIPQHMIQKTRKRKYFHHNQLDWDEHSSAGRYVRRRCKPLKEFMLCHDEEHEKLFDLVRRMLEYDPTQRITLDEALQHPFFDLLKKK

[14] = molecular target: Dual specificity tyrosine-phosphorylation-regulated kinase 1B (Homo sapiens) (UniProt Q9Y463); settings: Compound concentration 100.0 nM
[15] = molecular target: Dual specificity tyrosine-phosphorylation-regulated kinase 2 (Homo sapiens) (UniProt Q92630); settings: Compound concentration 100.0 nM
[16] = tested on: Epidermal growth factor receptor (Homo sapiens), P00533 [T790M]; settings: Compound concentration 100.0 nM
[17] = molecular target: Mitogen-activated protein kinase 6 (Homo sapiens) (UniProt Q16659); settings: Compound concentration 100.0 nM
[18] = molecular target: Receptor-type tyrosine-protein kinase FLT3 (Homo sapiens) (UniProt P36888); settings: Compound concentration 100.0 nM
[19] = molecular target: Tyrosine-protein kinase FRK (Homo sapiens) (UniProt P42685); settings: Compound concentration 100.0 nM
[20] = molecular target: Beta-adrenergic receptor kinase 1 (Homo sapiens) (UniProt P25098); settings: Compound concentration 100.0 nM
Beta-adrenergic receptor kinase 1 (Homo sapiens), sequence (P25098 whole entry): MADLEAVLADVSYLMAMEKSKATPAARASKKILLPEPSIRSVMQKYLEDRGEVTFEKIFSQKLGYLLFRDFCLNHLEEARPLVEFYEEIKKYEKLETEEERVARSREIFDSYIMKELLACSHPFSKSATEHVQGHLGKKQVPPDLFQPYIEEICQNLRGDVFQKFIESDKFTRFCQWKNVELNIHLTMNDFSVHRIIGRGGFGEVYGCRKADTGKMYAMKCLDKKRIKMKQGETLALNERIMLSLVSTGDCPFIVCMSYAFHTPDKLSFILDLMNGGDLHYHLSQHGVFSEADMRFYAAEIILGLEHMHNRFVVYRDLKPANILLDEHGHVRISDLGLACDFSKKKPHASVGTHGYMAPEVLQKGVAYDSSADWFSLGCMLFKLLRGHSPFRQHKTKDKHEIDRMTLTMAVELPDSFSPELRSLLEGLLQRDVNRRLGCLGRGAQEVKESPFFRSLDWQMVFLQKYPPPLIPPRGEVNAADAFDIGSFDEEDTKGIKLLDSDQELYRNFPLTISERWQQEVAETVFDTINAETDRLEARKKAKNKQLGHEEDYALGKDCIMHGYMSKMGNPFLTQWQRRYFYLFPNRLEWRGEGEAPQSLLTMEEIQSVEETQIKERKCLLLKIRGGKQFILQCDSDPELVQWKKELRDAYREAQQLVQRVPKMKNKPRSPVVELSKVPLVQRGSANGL

[21] = molecular target: Mitogen-activated protein kinase 8 (Homo sapiens) (UniProt P45983); settings: Compound concentration 100.0 nM
Mitogen-activated protein kinase 8 (Homo sapiens), sequence (P45983 whole entry): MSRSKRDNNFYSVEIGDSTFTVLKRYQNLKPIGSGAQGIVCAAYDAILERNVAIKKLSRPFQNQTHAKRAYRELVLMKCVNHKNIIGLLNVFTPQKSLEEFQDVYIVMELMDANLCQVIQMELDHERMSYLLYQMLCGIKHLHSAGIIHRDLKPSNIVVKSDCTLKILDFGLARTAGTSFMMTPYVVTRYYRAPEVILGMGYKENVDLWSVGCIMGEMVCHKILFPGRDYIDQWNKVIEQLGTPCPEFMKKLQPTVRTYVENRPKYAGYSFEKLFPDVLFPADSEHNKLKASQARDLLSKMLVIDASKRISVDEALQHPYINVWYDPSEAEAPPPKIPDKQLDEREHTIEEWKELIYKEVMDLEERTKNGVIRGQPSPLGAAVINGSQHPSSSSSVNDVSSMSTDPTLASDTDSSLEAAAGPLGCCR

[22] = molecular target: Serine/threonine-protein kinase LATS2 (Homo sapiens) (UniProt Q9NRM7); settings: Compound concentration 100.0 nM
Serine/threonine-protein kinase LATS2 (Homo sapiens), sequence (Q9NRM7 whole entry): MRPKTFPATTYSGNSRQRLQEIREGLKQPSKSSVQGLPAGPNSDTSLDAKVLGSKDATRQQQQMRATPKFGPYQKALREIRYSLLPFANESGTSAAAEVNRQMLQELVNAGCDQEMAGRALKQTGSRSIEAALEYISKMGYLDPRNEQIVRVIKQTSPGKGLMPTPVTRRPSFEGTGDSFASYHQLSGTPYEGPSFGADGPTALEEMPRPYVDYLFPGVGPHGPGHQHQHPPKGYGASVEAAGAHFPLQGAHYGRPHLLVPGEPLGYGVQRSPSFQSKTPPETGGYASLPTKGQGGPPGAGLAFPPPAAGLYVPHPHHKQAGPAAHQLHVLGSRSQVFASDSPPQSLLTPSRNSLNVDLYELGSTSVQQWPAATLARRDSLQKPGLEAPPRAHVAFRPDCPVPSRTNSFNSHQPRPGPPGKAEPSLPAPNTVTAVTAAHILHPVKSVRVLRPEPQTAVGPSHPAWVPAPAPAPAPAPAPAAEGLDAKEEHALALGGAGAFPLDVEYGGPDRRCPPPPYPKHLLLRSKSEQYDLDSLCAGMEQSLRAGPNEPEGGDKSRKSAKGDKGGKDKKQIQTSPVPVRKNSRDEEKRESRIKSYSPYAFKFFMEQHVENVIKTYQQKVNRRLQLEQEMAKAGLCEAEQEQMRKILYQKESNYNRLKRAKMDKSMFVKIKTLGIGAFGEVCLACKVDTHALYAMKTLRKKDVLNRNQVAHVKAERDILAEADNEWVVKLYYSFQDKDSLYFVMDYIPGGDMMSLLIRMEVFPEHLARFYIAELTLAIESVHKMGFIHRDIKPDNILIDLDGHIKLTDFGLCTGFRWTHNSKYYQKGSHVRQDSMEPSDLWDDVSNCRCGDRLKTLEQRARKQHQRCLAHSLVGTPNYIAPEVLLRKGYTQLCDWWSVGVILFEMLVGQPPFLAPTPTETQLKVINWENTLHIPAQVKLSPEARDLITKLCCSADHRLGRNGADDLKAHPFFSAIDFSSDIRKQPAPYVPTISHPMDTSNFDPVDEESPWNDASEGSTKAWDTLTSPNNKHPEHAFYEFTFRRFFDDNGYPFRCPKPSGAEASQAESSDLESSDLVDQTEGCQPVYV

[23] = molecular target: Dual specificity mitogen-activated protein kinase kinase 4 (Homo sapiens) (UniProt P45985); settings: Compound concentration 100.0 nM
[24] = molecular target: Dual specificity mitogen-activated protein kinase kinase 5 (Homo sapiens) (UniProt Q13163); settings: Compound concentration 100.0 nM
Dual specificity mitogen-activated protein kinase kinase 5 (Homo sapiens), sequence (Q13163 whole entry): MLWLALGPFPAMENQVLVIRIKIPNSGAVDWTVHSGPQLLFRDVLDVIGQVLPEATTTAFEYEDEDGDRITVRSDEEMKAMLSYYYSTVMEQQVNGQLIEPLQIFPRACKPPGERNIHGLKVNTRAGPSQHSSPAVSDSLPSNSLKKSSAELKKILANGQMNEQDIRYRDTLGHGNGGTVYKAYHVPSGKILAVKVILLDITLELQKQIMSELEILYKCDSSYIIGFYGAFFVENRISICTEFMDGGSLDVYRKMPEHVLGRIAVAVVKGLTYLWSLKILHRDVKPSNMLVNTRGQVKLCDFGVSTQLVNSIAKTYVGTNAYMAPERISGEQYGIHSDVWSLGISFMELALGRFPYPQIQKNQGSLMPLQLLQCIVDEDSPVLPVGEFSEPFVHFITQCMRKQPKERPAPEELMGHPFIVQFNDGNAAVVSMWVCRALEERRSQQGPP

[25] = tested on: Hepatocyte growth factor receptor (Homo sapiens), P08581 [M1250T]; settings: Compound concentration 100.0 nM
[26] = molecular target: Muscle, skeletal receptor tyrosine-protein kinase (Homo sapiens) (UniProt O15146); settings: Compound concentration 100.0 nM
[27] = molecular target: Serine/threonine-protein kinase Nek1 (Homo sapiens) (UniProt Q96PY6); settings: Compound concentration 100.0 nM
[28] = molecular target: Serine/threonine-protein kinase Nek2 (Homo sapiens) (UniProt P51955); settings: Compound concentration 100.0 nM
Serine/threonine-protein kinase Nek2 (Homo sapiens), sequence (P51955 whole entry): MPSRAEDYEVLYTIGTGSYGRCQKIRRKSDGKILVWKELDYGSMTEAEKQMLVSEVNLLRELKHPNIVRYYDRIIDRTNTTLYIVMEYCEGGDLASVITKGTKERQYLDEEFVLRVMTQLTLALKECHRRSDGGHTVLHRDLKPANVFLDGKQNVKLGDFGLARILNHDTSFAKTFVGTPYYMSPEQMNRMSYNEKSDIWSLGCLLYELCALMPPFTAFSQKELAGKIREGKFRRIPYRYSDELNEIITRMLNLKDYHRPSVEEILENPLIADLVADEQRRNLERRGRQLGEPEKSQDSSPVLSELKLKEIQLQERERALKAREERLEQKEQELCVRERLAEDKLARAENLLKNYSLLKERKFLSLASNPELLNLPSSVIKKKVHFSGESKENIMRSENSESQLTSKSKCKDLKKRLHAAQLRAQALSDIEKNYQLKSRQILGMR

[29] = molecular target: Serine/threonine-protein kinase Nek7 (Homo sapiens) (UniProt Q8TDX7); settings: Compound concentration 100.0 nM
[30] = molecular target: Mitogen-activated protein kinase 14 (Homo sapiens) (UniProt Q16539); settings: Compound concentration 100.0 nM
[31] = molecular target: Serine/threonine-protein kinase PAK 4 (Homo sapiens) (UniProt O96013); settings: Compound concentration 100.0 nM
[32] = tested on: Phosphatidylinositol 4,5-bisphosphate 3-kinase catalytic subunit alpha isoform (Homo sapiens), P42336 [E542K]; settings: Compound concentration 100.0 nM
[33] = molecular target: Serine/threonine-protein kinase PLK2 (Homo sapiens) (UniProt Q9NYY3); settings: Compound concentration 100.0 nM
[34] = molecular target: Protein kinase C delta type (Homo sapiens) (UniProt Q05655); settings: Compound concentration 100.0 nM
[35] = molecular target: Dual serine/threonine and tyrosine protein kinase (Homo sapiens) (UniProt Q6XUX3); settings: Compound concentration 100.0 nM
[36] = molecular target: Rho-associated protein kinase 1 (Homo sapiens) (UniProt Q13464); settings: Compound concentration 100.0 nM
[37] = molecular target: Ribosomal protein S6 kinase alpha-5 (Homo sapiens) (UniProt O75582); settings: Compound concentration 100.0 nM
[38] = molecular target: Ribosomal protein S6 kinase alpha-6 (Homo sapiens) (UniProt Q9UK32); settings: Compound concentration 100.0 nM
[39] = molecular target: Serine/threonine-protein kinase SIK2 (Homo sapiens) (UniProt Q9H0K1); settings: Compound concentration 100.0 nM
[40] = molecular target: Angiopoietin-1 receptor (Homo sapiens) (UniProt Q02763); settings: Compound concentration 100.0 nM
[41] = molecular target: 5-hydroxytryptamine receptor 2A (Homo sapiens) (UniProt P28223); settings: Compound concentration 10.0 uM
[42] = molecular target: Sigma intracellular receptor 2 (Homo sapiens, UniProt Q5BJF2); settings: Compound concentration 10.0 uM

CC(C)CC(=O)N1CCc2nc(-c3ccc(Br)cc3)nc(N(C)Cc3ccccc3)c2C1 [THPP-1-NC]
active: inhibition [42] 78.8%
6.89 µM (not active): Ki [3]
> 50 µM (not active): Ki [2]
inactive: residual activity [4] 99% | residual activity [5] 100% | residual activity [6] 64% | residual activity [7] 100% | residual activity [8] 99% | residual activity [9] 94% | residual activity [10] 100% | residual activity [11] 100% | residual activity [12] 93% | residual activity [13] 92% | residual activity [14] 77% | residual activity [15] 84% | residual activity [16] 74% | residual activity [17] 100% | residual activity [18] 60% | residual activity [19] 100% | residual activity [20] 100% | residual activity [21] 100% | residual activity [22] 94% | residual activity [23] 97% | residual activity [24] 98% | residual activity [25] 70% | residual activity [26] 100% | residual activity [27] 100% | residual activity [28] 100% | residual activity [29] 100% | residual activity [30] 100% | residual activity [31] 100% | residual activity [32] 100% | residual activity [33] 100% | residual activity [34] 100% | residual activity [35] 100% | residual activity [36] 78% | residual activity [37] 100% | residual activity [38] 100% | residual activity [39] 100% | residual activity [40] 100% | inhibition [41] 3%
> 100 µM (not active): Ki [1]

COCCOc1nc(-c2ccc(Cl)nc2)nc2c1CN(C(=O)c1ncn3ccccc13)CC2 [THPP-1]
0.116 µM: Ki [3]
3.3 µM (not active): Ki [2]
1.2 µM (not active): Ki [1]
active: residual activity [6] 47% | inhibition [42] 55.6%
inactive: residual activity [4] 100% | residual activity [5] 100% | residual activity [7] 100% | residual activity [8] 100% | residual activity [9] 93% | residual activity [10] 100% | residual activity [11] 100% | residual activity [12] 100% | residual activity [13] 100% | residual activity [14] 83% | residual activity [15] 100% | residual activity [16] 61% | residual activity [17] 100% | residual activity [18] 85% | residual activity [19] 100% | residual activity [20] 100% | residual activity [21] 100% | residual activity [22] 68% | residual activity [23] 100% | residual activity [24] 100% | residual activity [25] 71% | residual activity [26] 100% | residual activity [27] 100% | residual activity [28] 100% | residual activity [29] 100% | residual activity [30] 100% | residual activity [31] 100% | residual activity [32] 87% | residual activity [33] 100% | residual activity [34] 100% | residual activity [35] 100% | residual activity [36] 93% | residual activity [37] 100% | residual activity [38] 100% | residual activity [39] 100% | residual activity [40] 100% | inhibition [41] -1.4%
